# Biological target: ALK2 (Homo sapiens (Human), UniProt Q04771)
# Assay: ALK2 inhibition, LanthaScreen Eu Kinase Binding Assay (ThermoFisher Scientific / Life Technologies)
# Conditions: read-out: Measured Ki (IC50) Value for Compounds: IC50
# Description: Biochemical assays to measure the inhibitory effects of the compounds were performed by ThermoFisher Scientific (Life Technologies). ALK2 inhibition was tested using LanthaScreen™ Eu Kinase Binding Assay screening protocol.
# Chain of ALK2 (Q04771 21-509): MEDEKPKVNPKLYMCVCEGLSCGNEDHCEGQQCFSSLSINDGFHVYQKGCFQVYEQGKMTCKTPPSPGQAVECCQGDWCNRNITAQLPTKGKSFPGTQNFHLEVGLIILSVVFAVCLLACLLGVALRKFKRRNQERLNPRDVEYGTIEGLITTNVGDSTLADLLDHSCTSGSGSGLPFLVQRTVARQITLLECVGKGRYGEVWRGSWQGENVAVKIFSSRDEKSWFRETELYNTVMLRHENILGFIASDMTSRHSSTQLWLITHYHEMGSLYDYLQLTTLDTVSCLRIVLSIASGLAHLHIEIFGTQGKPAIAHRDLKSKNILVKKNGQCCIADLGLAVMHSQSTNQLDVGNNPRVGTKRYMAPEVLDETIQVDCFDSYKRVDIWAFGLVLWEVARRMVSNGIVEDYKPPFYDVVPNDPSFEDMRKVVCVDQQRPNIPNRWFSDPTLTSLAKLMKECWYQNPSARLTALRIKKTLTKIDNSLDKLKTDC
row,IC50 [nM],SMILES
1,> 1000,"Cn1cnc(Nc2nc(Cl)nc3ccoc23)c1 [Compound 1b, 2-chloro-N-(1-methyl-1H-imidazol-4-yl)furo[3,2-d]pyrimidin-4-amine]"
2,100 to 1000,"Cn1cnc(Nc2nc(N3CCC[C@H]3CO)nc3ccoc23)c1 [Compound 2a, (S)-(1-(4-((1-methyl-1H-imidazol-4-yl)amino)furo[3,2-d]pyrimidin-2-yl)pyrrolidin-2-yl)methanol]"
3,> 1000,"Cn1cnc(Nc2nc(N3CCC[C@@H]3CO)nc3ccoc23)c1 [Compound 3a, (R)-(1-(4-((1-methyl-1H-imidazol-4-yl)amino)furo[3,2-d]pyrimidin-2-yl)pyrrolidin-2-yl)methanol]"
4,> 1000,"Cn1cnc(Nc2nc(Cl)nn3cccc23)c1 [Compound 4b, 2-chloro-N-(1-methyl-1H-imidazol-4-yl)pyrrolo[2,1-f][1,2,4]triazin-4-amine]"
5,< 100,"Cn1cnc(Nc2nc(N3CCCC3c3ccccn3)nn3cccc23)c1 (centres unmarked) [Compound 4c, N-(1-methyl-1H-imidazol-4-yl)-2-(2-(pyridin-2-yl)pyrrolidin-1-yl)pyrrolo[1,2-f][1,2,4]triazin-4-amine]"
6,< 100,"Cn1cnc(Nc2nc(N3CCCC3c3ccccn3)nc3ccoc23)c1 (centres unmarked) [Compound 5a, N-(1-methyl-1H-imidazol-4-yl)-2-(2-(pyridin-2-yl)pyrrolidin-1-yl)furo[3,2-d]pyrimidin-4-amine]"
7,100 to 1000,"Cn1cnc(Nc2nc(N3CCC[C@H]3CO)nn3cccc23)c1 [Compound 6a, (S)-(1-(4-(1-methyl-1H-imidazol-4-ylamino)pyrrolo[1,2-f][1,2,4]triazin-2-yl)pyrrolidin-2-yl)methanol]"
8,> 1000,"Cn1cnc(Nc2nc(N3CCC[C@@H]3CO)nn3cccc23)c1 [Compound 7a, (R)-(1-(4-(1-methyl-1H-imidazol-4-ylamino)pyrrolo[1,2-f][1,2,4]triazin-2-yl)pyrrolidin-2-yl)methanol]"
9,< 100,"OC[C@@H]1CCCN1c1nc(Nc2cn(-c3ccccc3)cn2)c2cccn2n1 [Compound 8c, (S)-(1-(4-((1-phenyl-1H-imidazol-4-yl)amino)pyrrolo[2,1-f][1,2,4]triazin-2-yl)pyrrolidin-2-yl)methanol]"
10,100 to 1000,"c1ccc(-n2cnc(Nc3nc(N4CCCC4c4ccccn4)nn4cccc34)c2)cc1 (centres unmarked) [Compound 9a, N-(1-phenyl-1H-imidazol-4-yl)-2-(2-(pyridin-2-yl)pyrrolidin-1-yl)pyrrolo[2,1-f][1,2,4]triazin-4-amine]"
11,< 100,"Cn1cnc(Nc2nc(N3CCCC3c3ccccc3)nn3cccc23)c1 (centres unmarked) [Compound 10a, N-(1-methyl-1H-imidazol-4-yl)-2-(2-phenylpyrrolidin-1-yl)pyrrolo[2,1-f][1,2,4]triazin-4-amine]"
12,< 100,"Cn1cnc(Nc2nc(N3CCCC3c3cccnc3)nc3ccoc23)c1 (centres unmarked) [Compound 11a, N-(1-methyl-1H-imidazol-4-yl)-2-(2-(pyridin-3-yl)pyrrolidin-1-yl)furo[3,2-d]pyrimidin-4-amine]"
13,< 100,"Cn1cnc(Nc2nc(N3CCCC3c3ccccn3)nc3ccsc23)c1 (centres unmarked) [Compound 12c, N-(1-methyl-1H-imidazol-4-yl)-2-(2-(pyridin-2-yl)pyrrolidin-1-yl)thieno[3,2-d]pyrimidin-4-amine]"
14,< 100,"Cn1cnc(Nc2nc(N3CCCC3c3ccccc3)nc3ccoc23)c1 (centres unmarked) [Compound 13a, N-(1-methyl-1H-imidazol-4-yl)-2-(2-phenylpyrrolidin-1-yl)furo[3,2-d]pyrimidin-4-amine]"
15,< 100,"OC[C@@H]1CCCN1c1nc(Nc2cn(-c3ccccc3)cn2)c2occc2n1 [Compound 14b, (S)-(1-(4-((1-phenyl-1H-imidazol-4-yl)amino)furo[3,2-d]pyrimidin-2-yl)pyrrolidin-2-yl)methanol]"
16,< 100,"Cn1cnc(Nc2nc(N3CCC[C@H]3c3ccccc3)nn3cccc23)c1 [Compound 15a, (S)—N-(1-methyl-1H-imidazol-4-yl)-2-(2-phenylpyrrolidin-1-yl)pyrrolo[2,1-f][1,2,4]triazin-4-amine]"
17,< 100,"OC[C@@H]1CCCN1c1nc(Nc2cn(-c3ccccc3)cn2)c2sccc2n1 [Compound 16b, (S)-(1-(4-((1-phenyl-1H-imidazol-4-yl)amino)thieno[3,2-d]pyrimidin-2-yl)pyrrolidin-2-yl)methanol]"
18,100 to 1000,"C[C@H](Nc1nc(Nc2cn(-c3ccccc3)cn2)c2sccc2n1)c1ccccc1 [Compound 17a, (S)—N4-(1-phenyl-1H-imidazol-4-yl)-N2-(1-phenylethyl)thieno[3,2-d]pyrimidine-2,4-diamine]"
19,< 100,"Cn1cnc(Nc2nc(N3CCC[C@H]3c3ccccn3)nn3cccc23)c1 [Compound 18a, (S)—N-(1-methyl-1H-imidazol-4-yl)-2-(2-(pyridin-2-yl)pyrrolidin-1-yl)pyrrolo[2,1-f][1,2,4]triazin-4-amine]"

row,IC50 [nM],SMILES
1,< 100,"Cn1cnc(Nc2nc(N3CCCC3c3cccnc3)nn3cccc23)c1 (centres unmarked) [Compound 19a, N-(1-methyl-1H-imidazol-4-yl)-2-(2-(pyridin-3-yl)pyrrolidin-1-yl)pyrrolo[2,1-f][1,2,4]triazin-4-amine]"
2,100 to 1000,"Cn1cnc(Nc2nc(N3CCCC3c3ccncc3)nn3cccc23)c1 (centres unmarked) [Compound 20a, N-(1-methyl-1H-imidazol-4-yl)-2-(2-(pyridin-4-yl)pyrrolidin-1-yl)pyrrolo[2,1-f][1,2,4]triazin-4-amine]"
3,< 100,"C[C@H](Nc1nc(Nc2cn(C)cn2)c2ccccc2n1)c1ccccc1 [Compound 21c, (S)—N4-(1-methyl-1H-imidazol-4-yl)-N2-(1-phenylethyl)quinazoline-2,4-diamine]"
4,< 100,"Cc1cc2c(Nc3cn(-c4ccccc4)cn3)nc(N3CCC[C@H]3CO)nc2s1 [Compound 22c, (S)-(1-(6-methyl-4-((1-phenyl-1H-imidazol-4-yl)amino)thieno[2,3-d]pyrimidin-2-yl)pyrrolidin-2-yl)methanol]"
5,< 100,"Cc1cc2nc(N3CCC[C@H]3CO)nc(Nc3cn(-c4ccccc4)cn3)c2s1 [Compound 23c, (S)-(1-(6-methyl-4-((1-phenyl-1H-imidazol-4-yl)amino)thieno[3,2-d]pyrimidin-2-yl)pyrrolidin-2-yl)methanol]"
6,100 to 1000,"C[C@H](Nc1nc(Nc2cn(-c3ccccc3)cn2)c2ccccc2n1)c1ccccc1 [Compound 24b, (S)—N4-(1-phenyl-1H-imidazol-4-yl)-N2-(1-phenylethyl)quinazoline-2,4-diamine]"
7,< 100,"OC[C@@H]1CCCN1c1nc(Nc2cn(-c3ccc(F)cc3)cn2)c2cccn2n1 [Compound 25c, (S)-(1-(4-((1-(4-fluorophenyl)-1H-imidazol-4-yl)amino)pyrrolo[2,1-f][1,2,4]triazin-2-yl)pyrrolidin-2-yl)methanol]"
8,100 to 1000,"OC[C@@H]1CCCN1c1nc(Nc2cn(C3CC3)cn2)c2cccn2n1 [Compound 26c, (S)-(1-(4-((1-cyclopropyl-1H-imidazol-4-yl)amino)pyrrolo[2,1-f][1,2,4]triazin-2-yl)pyrrolidin-2-yl)methanol]"
9,100 to 1000,"c1ccc(C2CCCN2c2nc(Nc3cn(C4CC4)cn3)c3cccn3n2)nc1 (centres unmarked) [Compound 27a, N-(1-cyclopropyl-1H-imidazol-4-yl)-2-(2-(pyridin-2-yl)pyrrolidin-1-yl)pyrrolo[2,1-f][1,2,4]triazin-4-amine]"
10,100 to 1000,"OC[C@@H]1CCCN1c1nc(Nc2cn(C3CCCCC3)cn2)c2cccn2n1 [Compound 28c, (S)-(1-(4-((1-cyclohexyl-1H-imidazol-4-yl)amino)pyrrolo[2,1-f][1,2,4]triazin-2-yl)pyrrolidin-2-yl)methanol]"
11,100 to 1000,"c1ccc(C2CCCN2c2nc(Nc3cn(C4CCCCC4)cn3)c3cccn3n2)nc1 (centres unmarked) [Compound 29a, N-(1-cyclohexyl-1H-imidazol-4-yl)-2-(2-(pyridin-2-yl)pyrrolidin-1-yl)pyrrolo[2,1-f][1,2,4]triazin-4-amine]"
12,100 to 1000,"c1ccc(C2CCCN2c2nc(Nc3cn(C4CC4)cn3)c3cccn3n2)cc1 (centres unmarked) [Compound 30a, N-(1-cyclopropyl-1H-imidazol-4-yl)-2-(2-phenylpyrrolidin-1-yl)pyrrolo[2,1-f][1,2,4]triazin-4-amine]"
13,< 100,"OC[C@@H]1CCCN1c1nc(Nc2cn(-c3ccccc3)cn2)c2ccsc2n1 [Compound 31c, (S)-(1-(4-((1-phenyl-1H-imidazol-4-yl)amino)thieno[2,3-d]pyrimidin-2-yl)pyrrolidin-2-yl)methanol]"
14,< 100,"OC[C@@H]1CCCN1c1nc(Nc2cn(-c3ccccc3)cn2)c2ccccc2n1 [Compound 32a, (S)-(1-(4-((1-phenyl-1H-imidazol-4-yl)amino)quinazolin-2-yl)pyrrolidin-2-yl)methanol]"
15,< 100,"c1ccc(-n2cnc(Nc3nc(N4CCCC4c4ccccn4)nc4ccoc34)c2)cc1 (centres unmarked) [Compound 33a, N-(1-phenyl-1H-imidazol-4-yl)-2-(2-(pyridin-2-yl)pyrrolidin-1-yl)furo[3,2-d]pyrimidin-4-amine]"
16,> 1000,"CN1CCN(c2nc(Nc3cn(C)cn3)c3cccn3n2)CC1 [Compound 34a, N-(1-methyl-1H-imidazol-4-yl)-2-(4-methylpiperazin-1-yl)pyrrolo[2,1-f][1,2,4]triazin-4-amine]"
17,100 to 1000,"CN1CCN(c2nc(Nc3cn(-c4ccccc4)cn3)c3cccn3n2)CC1 [Compound 35a, 2-(4-methylpiperazin-1-yl)-N-(1-phenyl-1H-imidazol-4-yl)pyrrolo[2,1-f][1,2,4]triazin-4-amine]"
18,< 100,"OC[C@@H]1CCCN1c1nc(Nc2cn(-c3ccccc3F)cn2)c2cccn2n1 [Compound 36c, (S)-(1-(4-((1-(2-fluorophenyl)-1H-imidazol-4-yl)amino)pyrrolo[2,1-f][1,2,4]triazin-2-yl)pyrrolidin-2-yl)methanol]"
19,< 100,"c1ccc(C2CCCN2c2nc(Nc3cn(C4CCC4)cn3)c3cccn3n2)nc1 (centres unmarked) [Compound 37c, N-(1-cyclobutyl-1H-imidazol-4-yl)-2-(2-(pyridin-2-yl)pyrrolidin-1-yl)pyrrolo[2,1-f][1,2,4]triazin-4-amine]"

# — patent publication US11661426B2, “Imidazole-containing inhibitors of ALK2 kinase” (BioCryst Pharmaceuticals, Inc., priority 2017, dated 2023)
